Test results published in patent publication US20260250270A1, “Compound Used as Kinase Inhibitor and Use Thereof” (TYK MEDICINES, INC., priority 2022, published 2026).
pIC50: −log10 of the molar value. Converted amounts (≈) assume the structure as drawn.

What was measured:
PC9 = assay: Cell proliferation inhibition (CellTiter-Glo) on cell line PC9; type: cell-based; details: Homo sapiens, PC-9
Procedure: (§1) The cell lines NCI-H1975 and PC9 selected for the experiments were provided by Sino-American Guanke Biotechnology (Beijing) Co. and were validated prior to use in this study.
(§2) A 10× stock of the compound to be tested was prepared for use, with 9 concentrations in 4-fold gradient dilution, diluted from 10 μM.
(§3) The logarithmic growth phase cell suspension was inoculated into a 96-well culture plate with 90 μL volume per well (2000 cells/well). 10 μL of 10× Compound to be tested was added to the plate according to the plate spreading diagram, and then mixed well. The plate was incubated in a 5% CO2 incubator at 37° C. The proliferation inhibitory activity of the compound was determined by the CellTiter-Glo method. Cell proliferation inhibition rate (Inhibition Rate) data were plotted using GraphPad Prism 8.0 software for cell viability curves and IC50 values were calculated.

[1] = target: Ba/F3-FL-EGFR-A763-Y764 ins FQEA (Homo sapiens, UniProt P00533, INS763FQEA, cells depend on it); assay: Cell proliferation inhibition (CellTiter-Glo), EGFR exon 20 insertion engineered cells; type: cell-based; details: 72 h, read-out: IC50, Ba/F3-FL-EGFR A763-Y764ins FQEA
Procedure: (§4) The selected engineering cells Ba/F3-FL-EGFR-V769-D770 ins ASV, Ba/F3-FL-EGFR-D770-N771 ins SVD, Ba/F3-FL-EGFR-H773-V774 ins NPH, Ba/F3-FL-EGFR-A763-Y764 ins FQEA, Ba/F3-HER2-A775-G776 ins YVMA were provided by Hefei PreceDo Biomedical Technology Co., LTD and were validated prior to use in this study.
(§5) A 20× stock of the compound to be tested was prepared for use, with 9 concentrations in 3-fold gradient dilution, diluted from 1 μM.
(§6) The logarithmic growth phase cell suspension was inoculated into 96-well white cell culture plates with 95 μL volume per well (2000 cells/well). 5 μL of 20× Compound to be tested was added to the plate containing 95 μL of cell suspension according to the plate spreading diagram, and then mixed well. The plate was incubated in a 5% CO2 incubator at 37° C. for 72 h. The proliferation inhibition activity of the compounds was determined by the CellTiter-Glo method, and the fluorescence value per well, RLU, was obtained from the SpectraMax Paradigm reading. Inhibition Rate data were processed using the following formula: Inhibition Rate (Inh %)=100−(RLU compound−RLU blank)/(RLU control−RLU blank)*100%. The cell viability corresponding to different concentrations of compounds was calculated in EXCEL, and then GraphPad Prism software was used to plot the cell viability curve and calculate the IC50 value.

[2] = target: Ba/F3-FL-EGFR-D770-N771 ins SVD (Homo sapiens, UniProt P00533, DUP768-770, cells depend on it); assay: as above; type: cell-based; details: 72 h, read-out: IC50, Ba/F3-FL-EGFR D770-N771ins SVD
Procedure: as §4, §5, §6

[3] = target: Ba/F3-FL-EGFR-V769-D770 ins ASV (Homo sapiens, UniProt P00533, DUP767-769, cells depend on it); assay: as above; type: cell-based; details: 72 h, read-out: IC50, Ba/F3-FL-EGFR V769-D770ins ASV
Procedure: as §4, §5, §6

[4] = target: Ba/F3-FL-EGFR-H773-V774 ins NPH (Homo sapiens, UniProt P00533, DUP771-773, cells depend on it); assay: as above; type: cell-based; details: 72 h, read-out: IC50, Ba/F3-FL-EGFR H773-V774ins NPH
Procedure: as §4, §5, §6

[5] = system: Lung cancer LU0387PDX model; assay: Pharmacodynamic study on lung cancer LU0387PDX model; type: in vivo, mice; details: LU0387 model; for TGI (%): P.O, QD * 13 days
Description: Lung cancer LU0387PDX model is a commonly used xenograft tumor model from Crown Bioscience, the experimental situation of this model is described as follows: after euthanasia of tumor-bearing mice, the tumor blocks were dissected out in aseptic condition, the blocks were cleaned to remove blood stains and connective tissues and necrotic parts, and the tumors were cut into small pieces of 2*2*2 mm^3, and inoculated with an adapter needle in sterilized experimental mice subcutaneously on the right dorsal side. Tumor growth was regularly observed, and when the tumors grew to an average volume of 100~200 mm^3, mice were randomly grouped according to tumor size and body weight for drug administration. Before the start of drug administration, all animals were weighed and the tumor volume was measured with vernier calipers. Mice were randomly grouped according to tumor volume to ensure that tumor volumes were similar between groups. Three mice in each group were administered orally once daily, and the inoculation site was observed after administration. Tumor volume and mouse body weight were measured twice a week. The experimental design and results were shown in Table 9, wherein P.O referred to administered orally; QD: once a day; TGI (Tumor volume inhibition rate)=(1-Tumor weight of the treatment group/Tumor weight of the control group)*100%.

[6] = target: Ba/F3-HER2-A775-G776 ins YVMA (Homo sapiens, UniProt P04626, DUP772-775, cells depend on it); assay: Cell proliferation inhibition (CellTiter-Glo), HER2 exon 20 insertion engineered cells; type: cell-based; details: for GI50: 72 h, CellTiter-Glo, read-out: IC50, Ba/F3-HER2-A775-G776ins YVMA
Procedure: as §4, §5, §6

NCI-H1975 = assay: Cell proliferation inhibition (CellTiter-Glo) on cell line NCI-H1975; type: cell-based; details: Homo sapiens
Procedure: as §1, §2, §3

[7] = system: Ba/F3 EGFR D770_N771 ins SVD; assay: In vivo pharmacodynamic study, Ba/F3-EGFR-D770_N771 ins SVD subcutaneous xenograft model; set-up: species or system nude mice; details: 30 mg/kg, P.O, QD * 14 days
Procedure: The experimental design and results were shown in Table 9, wherein P.O referred to administered orally; QD: once a day; TGI (Tumor volume inhibition rate)=(1-Tumor weight of the treatment group/Tumor weight of the control group)*100%. The cell line Ba/F3 EGFR D770_N771 ins SVD was cultured in 37° C., 5% CO2 with RPMI1640+10% fetal bovine serum+1% double antibody, and passaged 2-3 times a week. When the cell saturation was 80-90% and the number of cells met the requirement, the cells were collected. 0.2 mL (1*10^6) cells were subcutaneously inoculated into the right back of 6-8 weeks old female nude mice weighing 18-22 g. When the average tumor volume reached approximately 150-200 mm^3, grouping and drug administration started. Before the start of drug administration, all animals were weighed and the tumor volume was measured with vernier calipers. Mice were randomly grouped according to tumor volume to ensure that tumor volumes were similar between groups. Three mice in each group were administered orally once daily, and the inoculation site was observed after administration. Tumor volume and mouse body weight were measured twice a week.

[8] = Stability experiment (left open, XRPD and liquid chromatography); type: physicochemical; details: left open at 80° C. 3 days, 60° C. 7 days, 25° C./60% RH 7 days, 40° C./75% RH 7 days, 25° C./90±5% RH 7 days
Procedure: In the stability experiment, when the free base crystalline form I was left open at 80° C. for 3 days, 60° C. for 7 days, 25° C./60% RH for 7 days, 40° C./75% RH for 7 days, and 25° C./90±5% RH for 7 days, the samples were taken for XRPD detection, respectively.

Grinding experiment = type: physicochemical
[9] = Solubility test by visual inspection in 18 solvents; type: physicochemical; details: room temperature
Description: The solubility of the free base crystalline form I of the compound of Example 1 was crudely determined by visual inspection in 18 solvents at room temperature. The free base crystalline form I was only highly soluble in dichloroethane and dichloromethane and poorly soluble in most of the solvents tested.

[10] = Dynamic water vapor adsorption (DVS) test; type: physicochemical
[11] = Competitive pulping of anhydrous crystalline forms I and V; type: physicochemical; details: saturated acetone and acetonitrile solutions, 25° C. or 50° C.
[12] = Tablet pressing experiment; type: physicochemical; details: pressure 30 MPa

Ba/F3-FL-EGFR-D770-N771 ins SVD, sequence (P00533 with tags, fused parts or gaps DUP768-770): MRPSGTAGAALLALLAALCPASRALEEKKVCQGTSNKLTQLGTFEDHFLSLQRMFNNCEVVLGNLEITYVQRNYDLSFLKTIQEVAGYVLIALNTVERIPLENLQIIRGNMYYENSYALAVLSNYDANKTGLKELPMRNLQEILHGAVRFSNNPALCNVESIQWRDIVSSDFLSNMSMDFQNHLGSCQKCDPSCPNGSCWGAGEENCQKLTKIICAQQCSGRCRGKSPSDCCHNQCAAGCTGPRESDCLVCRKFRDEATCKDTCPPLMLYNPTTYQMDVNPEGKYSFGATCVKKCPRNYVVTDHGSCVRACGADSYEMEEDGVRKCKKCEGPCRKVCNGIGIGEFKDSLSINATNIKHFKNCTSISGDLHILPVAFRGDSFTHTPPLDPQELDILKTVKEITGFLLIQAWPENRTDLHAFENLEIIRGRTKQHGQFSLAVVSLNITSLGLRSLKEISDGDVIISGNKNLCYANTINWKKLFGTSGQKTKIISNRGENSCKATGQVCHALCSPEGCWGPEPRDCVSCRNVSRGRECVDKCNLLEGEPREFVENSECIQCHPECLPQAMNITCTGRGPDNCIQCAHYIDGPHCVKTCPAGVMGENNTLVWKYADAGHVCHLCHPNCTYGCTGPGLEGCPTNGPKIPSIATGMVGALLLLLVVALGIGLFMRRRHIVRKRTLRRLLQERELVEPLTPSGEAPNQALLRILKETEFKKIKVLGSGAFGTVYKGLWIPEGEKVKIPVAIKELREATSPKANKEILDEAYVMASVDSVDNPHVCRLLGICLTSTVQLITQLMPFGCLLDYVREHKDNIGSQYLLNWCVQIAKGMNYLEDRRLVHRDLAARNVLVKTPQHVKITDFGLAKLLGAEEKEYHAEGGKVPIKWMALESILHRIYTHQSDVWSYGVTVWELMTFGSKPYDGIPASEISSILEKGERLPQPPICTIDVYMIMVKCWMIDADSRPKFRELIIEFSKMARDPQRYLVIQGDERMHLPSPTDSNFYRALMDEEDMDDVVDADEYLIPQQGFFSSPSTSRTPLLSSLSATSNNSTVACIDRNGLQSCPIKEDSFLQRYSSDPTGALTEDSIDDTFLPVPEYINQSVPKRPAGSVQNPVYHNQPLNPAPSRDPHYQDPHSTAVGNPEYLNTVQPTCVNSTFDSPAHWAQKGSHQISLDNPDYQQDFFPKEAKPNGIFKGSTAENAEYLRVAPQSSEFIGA
Ba/F3-HER2-A775-G776 ins YVMA, sequence (P04626 with tags, fused parts or gaps DUP772-775): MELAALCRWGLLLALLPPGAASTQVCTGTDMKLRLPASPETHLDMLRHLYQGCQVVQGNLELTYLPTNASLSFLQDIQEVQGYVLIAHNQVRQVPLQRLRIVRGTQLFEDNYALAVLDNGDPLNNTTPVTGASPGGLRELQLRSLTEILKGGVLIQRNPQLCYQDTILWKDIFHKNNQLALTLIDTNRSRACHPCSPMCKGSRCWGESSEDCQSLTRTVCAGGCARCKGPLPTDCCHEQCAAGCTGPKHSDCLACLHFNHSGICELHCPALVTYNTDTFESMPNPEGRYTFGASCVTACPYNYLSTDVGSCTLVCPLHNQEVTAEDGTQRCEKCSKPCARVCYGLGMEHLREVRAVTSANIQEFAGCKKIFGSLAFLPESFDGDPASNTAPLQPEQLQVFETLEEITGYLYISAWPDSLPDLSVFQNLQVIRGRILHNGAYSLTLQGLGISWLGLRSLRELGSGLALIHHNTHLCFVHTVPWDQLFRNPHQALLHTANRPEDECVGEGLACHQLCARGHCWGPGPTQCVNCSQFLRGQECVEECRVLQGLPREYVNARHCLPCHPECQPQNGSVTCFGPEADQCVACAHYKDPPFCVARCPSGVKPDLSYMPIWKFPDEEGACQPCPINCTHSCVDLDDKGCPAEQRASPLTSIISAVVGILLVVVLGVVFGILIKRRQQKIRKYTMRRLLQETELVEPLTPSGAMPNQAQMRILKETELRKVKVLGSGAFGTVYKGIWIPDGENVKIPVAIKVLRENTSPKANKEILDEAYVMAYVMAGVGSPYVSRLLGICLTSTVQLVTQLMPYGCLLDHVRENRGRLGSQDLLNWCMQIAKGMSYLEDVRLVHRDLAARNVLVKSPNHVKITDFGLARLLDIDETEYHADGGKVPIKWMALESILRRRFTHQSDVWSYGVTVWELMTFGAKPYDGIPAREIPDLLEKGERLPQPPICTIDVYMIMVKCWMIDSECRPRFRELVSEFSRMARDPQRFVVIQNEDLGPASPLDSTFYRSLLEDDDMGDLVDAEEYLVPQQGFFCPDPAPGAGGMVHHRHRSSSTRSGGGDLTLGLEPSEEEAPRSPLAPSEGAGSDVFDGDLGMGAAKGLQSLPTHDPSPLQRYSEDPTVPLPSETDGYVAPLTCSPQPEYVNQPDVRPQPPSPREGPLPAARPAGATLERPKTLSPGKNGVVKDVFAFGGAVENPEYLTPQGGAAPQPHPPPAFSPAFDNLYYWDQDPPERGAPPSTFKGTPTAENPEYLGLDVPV
Ba/F3-FL-EGFR-A763-Y764 ins FQEA, sequence (P00533 with tags, fused parts or gaps INS763FQEA): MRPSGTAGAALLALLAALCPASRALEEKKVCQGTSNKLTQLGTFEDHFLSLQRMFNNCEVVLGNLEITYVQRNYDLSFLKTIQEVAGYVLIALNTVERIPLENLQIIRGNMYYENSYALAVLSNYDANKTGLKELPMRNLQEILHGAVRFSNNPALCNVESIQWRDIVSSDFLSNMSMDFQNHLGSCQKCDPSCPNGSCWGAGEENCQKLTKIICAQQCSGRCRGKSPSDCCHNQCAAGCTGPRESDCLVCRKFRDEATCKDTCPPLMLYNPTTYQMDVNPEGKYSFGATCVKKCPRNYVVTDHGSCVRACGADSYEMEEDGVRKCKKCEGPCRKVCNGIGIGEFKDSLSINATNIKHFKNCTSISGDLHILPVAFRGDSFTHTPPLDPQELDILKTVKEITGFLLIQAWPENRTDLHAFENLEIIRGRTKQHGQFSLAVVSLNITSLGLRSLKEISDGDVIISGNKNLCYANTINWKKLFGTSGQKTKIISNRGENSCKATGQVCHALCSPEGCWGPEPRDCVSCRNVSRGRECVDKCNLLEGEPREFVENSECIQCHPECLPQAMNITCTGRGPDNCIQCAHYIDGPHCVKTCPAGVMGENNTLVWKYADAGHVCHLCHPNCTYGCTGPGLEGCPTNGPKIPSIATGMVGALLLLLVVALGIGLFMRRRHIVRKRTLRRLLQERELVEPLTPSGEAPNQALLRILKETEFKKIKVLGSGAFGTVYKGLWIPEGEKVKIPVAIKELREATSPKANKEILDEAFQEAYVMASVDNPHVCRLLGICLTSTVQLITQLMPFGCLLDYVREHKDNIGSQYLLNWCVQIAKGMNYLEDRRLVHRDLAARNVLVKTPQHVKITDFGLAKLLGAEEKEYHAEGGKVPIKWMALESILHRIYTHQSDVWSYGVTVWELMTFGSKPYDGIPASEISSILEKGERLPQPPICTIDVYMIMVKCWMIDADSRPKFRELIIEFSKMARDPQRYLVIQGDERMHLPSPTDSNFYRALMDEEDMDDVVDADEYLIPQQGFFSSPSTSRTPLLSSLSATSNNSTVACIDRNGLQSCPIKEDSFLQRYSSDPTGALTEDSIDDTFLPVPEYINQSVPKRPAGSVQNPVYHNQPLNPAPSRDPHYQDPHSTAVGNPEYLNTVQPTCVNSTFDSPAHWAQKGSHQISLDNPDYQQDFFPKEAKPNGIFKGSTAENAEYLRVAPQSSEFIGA
Ba/F3-FL-EGFR-V769-D770 ins ASV, sequence (P00533 with tags, fused parts or gaps DUP767-769): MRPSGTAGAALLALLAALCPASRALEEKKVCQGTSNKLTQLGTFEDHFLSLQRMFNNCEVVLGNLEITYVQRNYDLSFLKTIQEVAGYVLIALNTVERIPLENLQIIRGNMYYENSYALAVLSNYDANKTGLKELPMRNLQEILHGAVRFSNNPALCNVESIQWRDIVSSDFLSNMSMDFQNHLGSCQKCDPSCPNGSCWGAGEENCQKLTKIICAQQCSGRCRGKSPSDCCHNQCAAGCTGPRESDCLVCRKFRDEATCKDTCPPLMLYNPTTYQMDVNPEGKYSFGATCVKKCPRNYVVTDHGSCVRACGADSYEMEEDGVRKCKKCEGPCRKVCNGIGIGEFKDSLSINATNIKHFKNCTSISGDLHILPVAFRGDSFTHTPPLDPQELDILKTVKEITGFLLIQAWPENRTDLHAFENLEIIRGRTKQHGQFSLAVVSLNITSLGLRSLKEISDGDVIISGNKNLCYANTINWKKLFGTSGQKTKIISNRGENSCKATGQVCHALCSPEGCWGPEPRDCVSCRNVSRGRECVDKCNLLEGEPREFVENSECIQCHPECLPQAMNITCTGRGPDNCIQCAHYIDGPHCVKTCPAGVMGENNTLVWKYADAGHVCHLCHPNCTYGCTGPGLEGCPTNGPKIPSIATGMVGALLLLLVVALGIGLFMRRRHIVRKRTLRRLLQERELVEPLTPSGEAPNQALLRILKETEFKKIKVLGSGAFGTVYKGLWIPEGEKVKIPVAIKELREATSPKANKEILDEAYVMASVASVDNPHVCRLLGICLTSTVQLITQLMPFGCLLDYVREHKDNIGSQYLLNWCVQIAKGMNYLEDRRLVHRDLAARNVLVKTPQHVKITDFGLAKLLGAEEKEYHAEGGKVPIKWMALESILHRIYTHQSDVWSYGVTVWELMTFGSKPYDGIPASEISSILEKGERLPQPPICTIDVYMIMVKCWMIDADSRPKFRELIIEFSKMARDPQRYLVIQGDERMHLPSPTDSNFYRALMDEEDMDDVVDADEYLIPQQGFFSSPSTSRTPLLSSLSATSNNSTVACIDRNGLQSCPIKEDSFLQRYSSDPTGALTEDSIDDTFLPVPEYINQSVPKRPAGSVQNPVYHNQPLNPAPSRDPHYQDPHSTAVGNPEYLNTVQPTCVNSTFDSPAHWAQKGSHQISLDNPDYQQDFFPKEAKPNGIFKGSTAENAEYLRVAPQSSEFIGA

## C=CC(=O)Nc1cc(Nc2ncc(C(=O)OC(C)C)c(-c3cn(C)c4ccccc34)n2)c(OC)cc1N(C)[C@@H]1[C@@H]2CN(C)C[C@@H]21 [Example 1]
PC9
  pIC50: ≥ 7.52
[1]
  GI50: ≤ 30 nM
[2]
  GI50: ≤ 30 nM
[3]
  GI50: ≤ 30 nM
[4]
  GI50: ≤ 30 nM
[5]; 30 mg/kg
  TGI (%): 79.01%
[5]; 50 mg/kg
  TGI (%): 97.44%
[5]; same dose
  efficacy compared with controls (FIG. 1, tumor volume): superior to that of TAK-788 and DZD9008
[6]
  GI50: ≤ 30 nM
NCI-H1975
  pIC50: ≥ 7.52
[7]
  TGI (%): 61.08%

## [2H]C([2H])([2H])n1cc(-c2nc(Nc3cc(NC(=O)C=C)c(N(C)[C@@H]4[C@@H]5CN(C)C[C@@H]54)cc3OC)ncc2C(=O)OC(C)C)c2ccccc21 [Example 2]
[1]
  GI50: ≤ 30 nM
[2]
  GI50: ≤ 30 nM
[3]
  GI50: ≤ 30 nM
[4]
  GI50: ≤ 30 nM

## [2H]C([2H])([2H])N(c1cc(OC)c(Nc2ncc(C(=O)OC(C)C)c(-c3cn(C)c4ccccc34)n2)cc1NC(=O)C=C)[C@@H]1[C@@H]2CN(C)C[C@@H]21 [Example 3]
[1]
  GI50: ≤ 30 nM
[2]
  GI50: ≤ 30 nM
[3]
  GI50: ≤ 30 nM
[4]
  GI50: ≤ 30 nM

## C=CC(=O)Nc1cc(Nc2ncc(-c3nnc(C)o3)c(-c3cn(C)c4ccccc34)n2)c(OC)cc1N(C)[C@@H]1[C@@H]2CN(C)C[C@@H]21 [Example 5]
PC9
  pIC50: ≥ 7.52
[1]
  GI50: ≤ 30 nM
[2]
  GI50: ≤ 30 nM
[3]
  GI50: ≤ 30 nM
[4]
  GI50: ≤ 30 nM
[5]; 30 mg/kg
  TGI (%): 66.90%
[6]
  GI50: ≤ 30 nM
[6]; Table 7
  cellular activity against HER2 exon 20 insertion mutations compared with controls: comparable to that of TAK-788 and superior to that of DZD9008
NCI-H1975
  pIC50: ≥ 7.52
[7]
  TGI (%): 59.51%

## [2H]C([2H])([2H])N(c1cc(OC)c(Nc2ncc(-c3nnc(C)o3)c(-c3cn(C)c4ccccc34)n2)cc1NC(=O)C=C)[C@@H]1[C@@H]2CN(C)C[C@@H]21 [Example 7]
[1]
  GI50: ≤ 30 nM
[2]
  GI50: ≤ 30 nM
[3]
  GI50: ≤ 30 nM
[4]
  GI50: ≤ 30 nM

## [2H]C([2H])([2H])N1C[C@@H]2[C@H](C1)[C@@H]2N(C)c1cc(OC)c(Nc2ncc(-c3nnc(C)o3)c(-c3cn(C)c4ccccc34)n2)cc1NC(=O)C=C [Example 8]
[1]
  GI50: ≤ 30 nM
[2]
  GI50: ≤ 30 nM
[3]
  GI50: ≤ 30 nM
[4]
  GI50: ≤ 30 nM

## C=CC(=O)Nc1cc(Nc2ncc(-c3nnc(C)o3)c(-c3cn(C)c4ccccc34)n2)c(OC)cc1N(C)[C@H]1[C@@H]2CN(C)C[C@@H]21 [Example 18, reference compound]
[7]
  TGI (%): 32.22%

## C=CC(=O)Nc1cc(Nc2ncc(C(=O)OC(C)C)c(-c3cn(C)c4ccccc34)n2)c(OC)cc1N(C)[C@H]1[C@@H]2CN(C)C[C@@H]21 [Example 40, reference compound]
[7]
  TGI (%): 37.84%

## C=CC(=O)Nc1cc(Nc2ncc(C(=O)OC(C)C)c(-c3cn(C)c4ccccc34)n2)c(OC)cc1N(C)[C@@H]1[C@@H]2CN(C)C[C@@H]21 [free base crystalline form I]
[8]
  stability, change in liquid chromatography results: no change
  stability, change of crystalline form by XRPD: no significant change
Grinding experiment; 5 min of dry grinding
  solid form after dry grinding: transformed into amorphous state
Grinding experiment; 5 min of wet grinding with ethanol
  crystallinity after wet grinding with ethanol: slight decrease in crystallinity
Grinding experiment; 5 min of wet grinding with water
  crystallinity after wet grinding with water: no significant change in crystallinity
[9]; organic solvent or mixture, thermodynamic from solid, 1,4-dioxane
  solubility: < 270 µg/mL
[9]; organic solvent or mixture, thermodynamic from solid, Acetone
  solubility: 2220 to 4440 µg/mL (≈ 3.64 to 7.28 mM)
[9]; organic solvent or mixture, thermodynamic from solid, Acetonitrile
  solubility: 930 to 1010 µg/mL (≈ 1.53 to 1.66 mM)
[9]; organic solvent or mixture, thermodynamic from solid, Butanone
  solubility: 2780 to 4440 µg/mL (≈ 4.56 to 7.28 mM)
[9]; organic solvent or mixture, thermodynamic from solid, Cyclohexane
  solubility: < 330 µg/mL
[9]; organic solvent or mixture, thermodynamic from solid, Dichloroethane
  solubility: 61800 to 124000 µg/mL (≈ 101 to 203 mM)
[9]; organic solvent or mixture, thermodynamic from solid, Dichloromethane
  solubility: > 107000 µg/mL
[9]; organic solvent or mixture, thermodynamic from solid, Dimethylsulfoxide
  solubility: 2600 to 2930 µg/mL (≈ 4.26 to 4.81 mM)
[9]; organic solvent or mixture, thermodynamic from solid, Ethanol
  solubility: < 300 µg/mL
[9]; organic solvent or mixture, thermodynamic from solid, Ethyl acetate
  solubility: < 290 µg/mL
[9]; organic solvent or mixture, thermodynamic from solid, Isopropanol
  solubility: < 350 µg/mL
[9]; organic solvent or mixture, thermodynamic from solid, Isopropyl acetate
  solubility: < 300 µg/mL
[9]; organic solvent or mixture, thermodynamic from solid, Methanol
  solubility: < 400 µg/mL
[9]; organic solvent or mixture, thermodynamic from solid, N-Methyl pyrrolidone
  solubility: 18200 to 27400 µg/mL (≈ 29.9 to 44.9 mM)
[9]; organic solvent or mixture, thermodynamic from solid, Tert-butyl methyl ether
  solubility: < 330 µg/mL
[9]; organic solvent or mixture, thermodynamic from solid, Tetrahydrofuran
  solubility: 2550 to 3190 µg/mL (≈ 4.18 to 5.23 mM)
[9]; organic solvent or mixture, thermodynamic from solid, n-Heptane
  solubility: < 300 µg/mL
[9]; thermodynamic from solid, Water
  solubility: < 270 µg/mL
[10]
  hygroscopicity: slightly hygroscopic
[10]; at 80% RH
  weight gain by water absorption: 0.66%
[11]
  thermodynamic stability versus free base crystalline form V: thermodynamically stable crystalline form
[12]
  crystallinity after tablet pressing: crystallinity slightly decreased
